Assays:
apolipoprotein B mRNA [1] = test: ob/ob mice (Example 50): apolipoprotein B mRNA levels in liver; assay type: in vivo, mouse; conditions: liver, high fat high cholesterol diet, 50 mg/kg i.p. twice a week, six weeks
Experimental: (§1) Ob/ob mice receiving a high fat, high cholesterol diet (60% kcal fat supplemented with 0.15% cholesterol) were treated with one of several oligonucleotides to evaluate their effect on apolipoprotein B-related phenotypic endpoints in ob/ob mice. After overnight fasting, mice from each group were dosed intraperitoneally twice a week with 50 mg/kg of ISIS 147483 (SEQ ID NO: 79), or 147764 (SEQ ID NO: 109), or the controls ISIS 116847 (SEQ ID NO: 857), or 141923 (SEQ ID NO: 858), or saline for six weeks. At study termination and forty eight hours after the final injections, animals were sacrificed and evaluated for target mRNA levels in liver, cholesterol and triglyceride levels, liver enzyme levels, serum glucose levels, and PTEN levels.

[2] = ob/ob mice (Example 50): cholesterol, lipid, triglyceride, liver enzyme and glucose levels; assay type: in vivo, mouse; conditions: high fat high cholesterol diet, 50 mg/kg i.p. twice a week, six weeks
Experimental: as §1

PTEN = test: ob/ob mice (Example 50): PTEN levels; assay type: in vivo, mouse; conditions: high fat high cholesterol diet, 50 mg/kg i.p. twice a week, six weeks
Experimental: as §1

apolipoprotein B mRNA [3] = test: High fat fed mice, time-dependent effects and after cessation of dosing (Example 51): apolipoprotein B mRNA in liver; assay type: in vivo, mouse; conditions: liver, 50 mg/kg i.p. twice weekly
Experimental: (§2) In a further embodiment of the invention, the inhibition of apolipoprotein B mRNA in mice was compared to liver oligonucleotide concentration, total cholesterol, LDL-cholesterol and HDL-cholesterol. Male C57Bl/6 mice receiving a high fat diet (60% fat) were evaluated over the course of 6 weeks for the effects of treatment with twice weekly intraperitoneal injections of 50 mg/kg ISIS 147764 (SEQ ID NO: 109) or 50 mg/kg of the control oligonucleotide ISIS 141923 (SEQ ID NO: 858). Control animals received saline treatment. Animals were sacrificed after 2 days, 1, 2, 4 and 6 weeks of treatment. Each treatment group at each time point consisted of 8 mice.
(§3) Target expression in liver was measured by real-time PCR as described by other examples herein and is expressed as percent inhibition relative to saline treated mice. Total, LDL- and HDL-cholesterol levels were measured by routine clinical analysis using an Olympus Clinical Analyzer (Olympus America Inc., Melville, N.Y.) and are presented in mg/dL. Results from saline-treated animals are shown for comparison. Intact oligonucleotide in liver tissue was measured by capillary gel electrophoresis and is presented as micrograms of oligonucleotide per gram of tissue.
(§4) The oligonucleotide treatments described in this example were duplicated to investigate the extent to which effects of ISIS 147764 persist following cessation of treatment. Mice were treated as described, and sacrificed 1, 2, 4, 6 and 8 weeks following the cessation of oligonucleotide treatment.

[4] = High fat fed mice (Example 51): intact oligonucleotide in liver tissue by capillary gel electrophoresis; assay type: in vivo, mouse; conditions: 50 mg/kg i.p. twice weekly
Experimental: as §2, §3, §4

[5] = High fat fed mice (Example 51): total, LDL- and HDL-cholesterol levels; assay type: in vivo, mouse; conditions: 50 mg/kg i.p. twice weekly
Experimental: as §2, §3, §4

[6] = test system: Cynomolgous monkey apolipoprotein B mRNA; test: Apolipoprotein B mRNA in primary Cynomolgous monkey hepatocytes, real-time PCR; assay type: cell-based; conditions: cynomolgous monkey primary hepatocytes; 10, 50, 150 or 300 nM
Summary of the method: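 Primary cynomolgus hepatocytes treated with antisense oligonucleotides at 10, 50, 150 or 300 nM (some sets 10–150 nM) for 24 or 48 h, depending on the set. mRNA quantified by real-time PCR using human apoB and GAPDH primers/probes. Values are percent inhibition normalized to untreated cells, averaged over 2–6 experiments.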

apolipoprotein B protein [7] = test: Apolipoprotein B protein secreted from primary Cynomolgous monkey hepatocytes, ELISA; assay type: cell-based; conditions: primary Cynomolgous hepatocytes; 150 and 300 nM
Summary of the method: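 Primary cynomolgus hepatocytes treated with oligonucleotide at 150 and 300 nM, or 50 and 150 nM for some compounds; secreted apoB protein quantified by apoB-specific ELISA. Values are means of 3 experiments.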

apolipoprotein B protein [8] = test: Apolipoprotein B protein in primary Cynomolgous monkey hepatocytes, immunoblot; assay type: cell-based
Experimental: Additionally, protein was isolated from oligonucleotide-treated primary Cynomolgous monkey hepatocytes and subjected to immunoblot analysis to further assess apolipoprotein B protein expression. Immunoblotting was performed as described herein, using an antibody to human apolipoprotein B protein (US Biologicals, Swampscott, Mass.).

[9] = high fat fed male C57Bl/6 mice, treatment period 1 week
[10] = high fat fed male C57Bl/6 mice, treatment period 2 weeks
[11] = high fat fed male C57Bl/6 mice, treatment period 4 weeks
[12] = high fat fed male C57Bl/6 mice, treatment period 6 weeks
[13] = high fat fed male C57Bl/6 mice, treatment period 2 days
[14] = high fat fed mice, 1 week after cessation of dosing
[15] = high fat fed mice, 2 weeks after cessation of dosing
[16] = high fat fed mice, 4 weeks after cessation of dosing
[17] = high fat fed mice, 6 weeks after cessation of dosing
[18] = high fat fed mice, 8 weeks after cessation of dosing

For “141923 (CCTTCCCTGAAGGTTCCTCC; listed as DNA, chemistry not given here) [compound 141923]”, the “mRNA % control ApoB” value (apolipoprotein B mRNA [1]) was 100.0 % control, the Glucose [2] was 328.5 mg/dL and the “Lipoproteins CHOL” value [2] was 646.3 mg/dL. The “Lipoproteins TRIG” value [2] was 196.5 mg/dL, the “Liver Enzymes ALT” value [2] was 701.7 IU/L and the “Liver Enzymes AST” value [2] was 329.3 IU/L. For the same substance, the “mRNA % control PTEN” value (PTEN) was 113.6 % control, the “% Inhibition apolipoprotein B mRNA” value (apolipoprotein B mRNA [3]; [9]) was 4% and the “% Inhibition apolipoprotein B mRNA” value (apolipoprotein B mRNA [3]; [10]) was 7%. The “% Inhibition apolipoprotein B mRNA” value (apolipoprotein B mRNA [3]; [11]) was 0%, the “% Inhibition apolipoprotein B mRNA” value (apolipoprotein B mRNA [3]; [12]) was 0% and the “% Inhibition apolipoprotein B mRNA” value (apolipoprotein B mRNA [3]; [13]) was 9%. For the same substance, the “% Inhibition apolipoprotein B mRNA” value (apolipoprotein B mRNA [3]; [14]) was 15%, the “% Inhibition apolipoprotein B mRNA” value (apolipoprotein B mRNA [3]; [15]) was 2% and the “% Inhibition apolipoprotein B mRNA” value (apolipoprotein B mRNA [3]; [16]) was 7%. The “% Inhibition apolipoprotein B mRNA” value (apolipoprotein B mRNA [3]; [17]) was 11%, the “% Inhibition apolipoprotein B mRNA” value (apolipoprotein B mRNA [3]; [18]) was 7% and the Intact oligonucleotide [4, 9] was 61 µg/g. It also gave an Intact oligonucleotide [4, 10] of 152 µg/g, an Intact oligonucleotide [4, 11] of 261 µg/g and an Intact oligonucleotide [4, 12] of 631 µg/g. It also gave an Intact oligonucleotide [4, 13] of 58 µg/g, an Intact oligonucleotide [4, 14] of 297 µg/g and an Intact oligonucleotide [4, 15] of 250 µg/g. For the same substance, the Intact oligonucleotide [4, 16] was 207 µg/g, the Intact oligonucleotide [4, 17] was 212 µg/g and the Intact oligonucleotide [4, 18] was 128 µg/g. The HDL-cholesterol [5, 9] was 116 mg/dL, the LDL-cholesterol [5, 9] was 27 mg/dL and the Total cholesterol [5, 9] was 146 mg/dL. It also gave an HDL-cholesterol [5, 10] of 122 mg/dL, an LDL-cholesterol [5, 10] of 27 mg/dL and a Total cholesterol [5, 10] of 152 mg/dL. The HDL-cholesterol [5, 11] was 128 mg/dL, the LDL-cholesterol [5, 11] was 38 mg/dL and the Total cholesterol [5, 11] was 169 mg/dL. The HDL-cholesterol [5, 12] was 166 mg/dL, the LDL-cholesterol [5, 12] was 56 mg/dL and the Total cholesterol [5, 12] was 225 mg/dL. For the same substance, the HDL-cholesterol [5, 13] was 70 mg/dL, the LDL-cholesterol [5, 13] was 8 mg/dL and the Total cholesterol [5, 13] was 99 mg/dL. For the same substance, the HDL-cholesterol [5, 14] was 121 mg/dL, the LDL-cholesterol [5, 14] was 24 mg/dL and the Total cholesterol [5, 14] was 158 mg/dL. It also gave an HDL-cholesterol [5, 15] of 105 mg/dL, an LDL-cholesterol [5, 15] of 24 mg/dL and a Total cholesterol [5, 15] of 139 mg/dL. It also gave an HDL-cholesterol [5, 16] of 135 mg/dL, an LDL-cholesterol [5, 16] of 32 mg/dL and a Total cholesterol [5, 16] of 185 mg/dL. For the same substance, the HDL-cholesterol [5, 17] was 136 mg/dL, the LDL-cholesterol [5, 17] was 32 mg/dL and the Total cholesterol [5, 17] was 186 mg/dL. The HDL-cholesterol [5, 18] was 108 mg/dL, the LDL-cholesterol [5, 18] was 24 mg/dL and the Total cholesterol [5, 18] was 151 mg/dL.

In the case of “GCCTCAGTCTGCTTTACACC (gapmer: ten 2'-deoxy gap, five-nucleotide wings, wing chemistry not given here) [ISIS 326358]”, the “inhibition of apolipoprotein B mRNA expression” value [6] is reported as “in a dose- and time-dependent manner”, the “secretion of apolipoprotein B protein (ELISA)” value (apolipoprotein B protein [7]) is reported as “decrease” and the “apolipoprotein B expression (immunoblot)” value (apolipoprotein B protein [8]) is reported as “substantial reduction”.
